The term IC50 denotes the concentration at which inhibition is half-maximal.

“Also recorded” adds a separate entry of the source. Like-named read-outs stand apart in the source and are kept apart here.

Five compounds from patent US8440724B2, “Inhibiting neurotransmitter reuptake” (Mayo Foundation for Medical Education and Research, priority 2008, dated 2013) can be followed below.

Series [1] relates to Male Sprague-Dawley rats. Briefly: Forced swim test in rats. The class given is in vivo, rat. The procedure, abridged:
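Male Sprague-Dawley rats got a 15 min pretest swim, then a 5-minute test 24 h later. Immobility (floating, only head-keeping movements) and swimming scored as total counts per 5-min session; ANOVA with Tukey post-hoc test.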

Series [2] has as its target T1, CYP2D6 (Homo sapiens, UniProt P10635).
T1 construct: purchased BD Biosciences 459200
The experiment in a line: CYP2D6 inhibition, CYP2D6/AMMC kit (BD Biosciences), fluorescent substrate. The class given is in vitro ADME. The following applies: for Potency of inhibition at CYP2D6, in words: compared with PRC200-SS. The source says: This kit includes the use of a fluorescent P450 substrate (AMMC or 3-[2-(N,N-diethyl-N-methylamino)ethyl]-7-methoxy-4-methylcoumarin) and recombinant human P450.

The subject of series [3] is mice. Briefly: Locomotor activity in motility chamber, mice. The class given is in vivo, mouse. The following applies: doses that exhibited positive effects in the TST, FIG. 11.
Series [4] addresses T2, mouse NET (Mus musculus, UniProt O55192).
T2 construct: from tissue; host or cells: mouse hippocampus
Briefly: Competition binding against [3H]nisoxetine, mouse hippocampus tissue. Conditions: mouse brain tissue (hippocampus), FIG. 10F vs Table 2. The protocol:
(§1) FIGS. 10A-D contain graphs plotting activity levels (counts/6 minutes) for mice treated with the indicated compound at the indicated amount. […] Each group of mice included between three and seven mice. FIGS. 10F is a line graph plotting the competition binding of the indicated compound against [^3H]nisoxetine for mouse hippocampus tissue. FIGS. 10G is a line graph plotting the competition binding of the indicated compound against [^3H]citalopram for mouse cortex tissue. FIG. 10H is a bar graph plotting the duration of immobility (seconds) during a tail suspension test of mice intraperitoneally (ip) or per os (po; orally) treated with 5 mg/kg of the indicated compound. […] Each group of mice included between seven and nine mice.

Series [5] concerns the target T3, mouse SERT (Mus musculus, UniProt Q60857).
T3 construct: from tissue; host or cells: mouse cortex
Briefly: Competition binding against [3H]citalopram, mouse cortex tissue. The following applies: mouse brain tissue (cortex), FIG. 10G vs Table 2. The procedure:
as §1

T1 sequence (P10635 whole entry): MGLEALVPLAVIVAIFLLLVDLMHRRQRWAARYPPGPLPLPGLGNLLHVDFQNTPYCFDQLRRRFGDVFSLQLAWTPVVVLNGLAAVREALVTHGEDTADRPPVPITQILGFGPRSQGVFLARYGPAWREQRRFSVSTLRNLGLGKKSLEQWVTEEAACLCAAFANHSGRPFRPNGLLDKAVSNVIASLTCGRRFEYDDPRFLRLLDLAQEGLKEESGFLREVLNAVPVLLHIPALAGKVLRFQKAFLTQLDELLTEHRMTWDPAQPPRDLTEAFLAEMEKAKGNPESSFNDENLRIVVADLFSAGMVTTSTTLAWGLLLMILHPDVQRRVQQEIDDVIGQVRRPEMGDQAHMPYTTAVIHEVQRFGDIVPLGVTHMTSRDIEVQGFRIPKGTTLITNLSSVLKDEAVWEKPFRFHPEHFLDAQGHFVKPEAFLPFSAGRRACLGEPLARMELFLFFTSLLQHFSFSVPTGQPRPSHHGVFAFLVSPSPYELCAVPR
T2 sequence (O55192 whole entry): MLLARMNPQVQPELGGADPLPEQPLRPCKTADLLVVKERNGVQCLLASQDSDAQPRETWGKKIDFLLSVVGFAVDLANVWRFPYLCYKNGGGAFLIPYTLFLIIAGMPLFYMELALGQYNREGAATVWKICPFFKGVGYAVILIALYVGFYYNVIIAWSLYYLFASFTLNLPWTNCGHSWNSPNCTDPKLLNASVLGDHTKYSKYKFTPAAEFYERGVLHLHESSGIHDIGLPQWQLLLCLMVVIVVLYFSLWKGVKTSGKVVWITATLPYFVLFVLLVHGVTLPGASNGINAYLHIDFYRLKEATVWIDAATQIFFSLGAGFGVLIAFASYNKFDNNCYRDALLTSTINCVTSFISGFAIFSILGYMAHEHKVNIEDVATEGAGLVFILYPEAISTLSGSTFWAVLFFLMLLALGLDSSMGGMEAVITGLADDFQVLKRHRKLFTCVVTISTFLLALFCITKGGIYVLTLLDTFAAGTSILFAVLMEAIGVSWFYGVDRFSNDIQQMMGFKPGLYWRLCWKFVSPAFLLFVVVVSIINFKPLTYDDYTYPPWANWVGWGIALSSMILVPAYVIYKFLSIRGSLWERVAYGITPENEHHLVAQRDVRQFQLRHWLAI
T3 sequence (Q60857 whole entry): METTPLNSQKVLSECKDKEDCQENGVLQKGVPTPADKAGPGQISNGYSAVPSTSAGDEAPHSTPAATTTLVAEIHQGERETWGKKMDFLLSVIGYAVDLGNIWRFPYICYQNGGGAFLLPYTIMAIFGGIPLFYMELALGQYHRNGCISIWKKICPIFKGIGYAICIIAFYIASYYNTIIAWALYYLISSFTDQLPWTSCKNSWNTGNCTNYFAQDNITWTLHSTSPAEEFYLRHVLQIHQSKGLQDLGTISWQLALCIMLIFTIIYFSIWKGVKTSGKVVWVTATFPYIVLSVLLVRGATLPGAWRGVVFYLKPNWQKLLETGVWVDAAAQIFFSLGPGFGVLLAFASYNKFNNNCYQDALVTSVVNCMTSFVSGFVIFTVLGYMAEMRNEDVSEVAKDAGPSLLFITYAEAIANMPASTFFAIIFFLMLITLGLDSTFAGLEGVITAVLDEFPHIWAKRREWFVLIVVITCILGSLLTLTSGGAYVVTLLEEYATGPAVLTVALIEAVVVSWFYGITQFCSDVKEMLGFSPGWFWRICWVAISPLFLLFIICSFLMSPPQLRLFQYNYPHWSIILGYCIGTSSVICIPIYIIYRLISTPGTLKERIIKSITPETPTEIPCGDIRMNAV

Consider `CNC[C@@H](c1ccc2ccccc2c1)[C@H](F)c1ccccc1` [MCJ001-F-SR, (2R,3S)-3-fluoro-N-methyl-2-(naphthalen-2-yl)-3-phenylpropan-1-amine], for which, in series [1] (5 mg/kg IP), the “Immobility in forced swim test vs saline” value was “statistically (P<0.04) less immobility” and the “Swimming in forced swim test vs saline” value was “statistically (P<0.04) more swimming behavior”. Also, the “Antidepressant activity in forced swim test compared with imipramine (15 mg/kg IP)” value in series [1] (5 mg/kg IP, FIG. 12A) is recorded as “antidepressant activity that was similar to that observed in rats treated with the positive control”.

Turning to `CNC[C@H](c1ccc2ccccc2c1)[C@H](OC)c1ccccc1` [MCJ001-OMe-SS, (2S,3S)-3-methoxy-N-methyl-2-(naphthalen-2-yl)-3-phenylpropan-1-amine], the “Potency of inhibition at CYP2D6, in words” value in series [2] is on record as “markedly reduced the potency of inhibition at CYP2D6”. Moreover, the “Effect on locomotor activity” value in series [3] is listed as “Only d-amphetamine caused a significant effect on locomotor activity”. Besides, in series [1] (5 mg/kg IP), the “Immobility in forced swim test vs saline” value was “statistically (P<0.04) less immobility” and the “Swimming in forced swim test vs saline” value is on record as “statistically (P<0.04) more swimming behavior”. The “Antidepressant activity in forced swim test compared with imipramine (15 mg/kg IP)” value in series [1] (5 mg/kg IP, FIG. 12A) was “antidepressant activity that was similar to that observed in rats treated with the positive control”.

Compound `CNC[C@H](c1ccc2ccccc2c1)[C@@H](N=[N+]=[N-])c1ccccc1` [MCJ001-N3-RS, (2S,3R)-3-azido-N-methyl-2-(naphthalen-2-yl)-3-phenylpropan-1-amine] gave an IC50 in series [2] of 4000 nM. For the same compound, in series [1] (5 mg/kg IP), the “Immobility in forced swim test vs saline” value is given as “statistically (P<0.04) less immobility” and the “Swimming in forced swim test vs saline” value is on record as “statistically (P<0.04) more swimming behavior”. For the same compound, the “Antidepressant activity in forced swim test compared with imipramine (15 mg/kg IP)” value in series [1] (5 mg/kg IP, FIG. 12A) is “antidepressant activity that was similar to that observed in rats treated with the positive control”.

On to `CN(C)C[C@H](c1ccc2ccccc2c1)[C@H](N)c1ccccc1` [MCJ002-NH2-SS, (2S,3S)-N1,N1-dimethyl-2-(naphthalen-2-yl)-3-phenylpropane-1,3-diamine], for which, in series [1] (5 mg/kg IP), the “Immobility in forced swim test vs saline” value is “statistically (P<0.04) less immobility” and the “Swimming in forced swim test vs saline” value is on record as “statistically (P<0.04) more swimming behavior”. For the same compound, in series [1] (5 mg/kg IP, FIG. 12A), the “Antidepressant activity in forced swim test compared with imipramine (15 mg/kg IP)” value is “antidepressant activity that was similar to that observed in rats treated with the positive control”. In addition, the “Potency at mouse NET as compared to potency at human NET” value in series [4] was determined as 10 fold weaker. Further, the “Potency at mouse SERT as compared to human SERT” value in series [5] was “about the same potency at mouse SERT”.

Take `CNC[C@H](c1ccc2ccccc2c1)[C@@H](F)c1ccccc1` [MCJ001-F-RS, (2S,3R)-3-fluoro-N-methyl-2-(naphthalen-2-yl)-3-phenylpropan-1-amine]: the “Potency of inhibition at CYP2D6, in words” value in series [2] is recorded as “markedly reduced the potency of inhibition at CYP2D6”. Besides, the half-maximal inhibitory concentration (IC50) in series [2] (recombinant human P450, AMMC substrate, read-out: Mean CYP2D6 (IC50)) turned out to be 160 nM. For the same compound, in series [3], the “Effect on locomotor activity” value is “Only d-amphetamine caused a significant effect on locomotor activity”. Also, in series [1], the “Immobility in forced swim test, 5 mg/kg IP vs 5 mg/kg PO of the same compound” value was “statistically (P<0.02) more swimming and less immobility”; the “Swimming in forced swim test, 5 mg/kg IP vs 5 mg/kg PO of the same compound” value was “statistically (P<0.02) more swimming and less immobility”. Besides, the “Climbing in forced swim test vs saline” value in series [1] (5 mg/kg IP) is “statistically (P<0.02) more swimming and climbing”. Besides, in series [1] (5 mg/kg IP, 5 mg/kg), the “Immobility in forced swim test vs saline” value is on record as “statistically (P<0.04) less immobility; also recorded: statistically (P<0.02) less immobility”; the “Swimming in forced swim test vs saline” value is “statistically (P<0.04) more swimming behavior; also recorded: statistically (P<0.02) more swimming and climbing”. For the same compound, in series [1] (5 mg/kg IP, FIG. 12A), the “Antidepressant activity in forced swim test compared with imipramine (15 mg/kg IP)” value was “antidepressant activity that was similar to that observed in rats treated with the positive control” and the “Immobility in forced swim test vs imipramine (15 mg/kg IP)” value is recorded as “statistically (P<0.04) less immobility than rats treated with imipramine”. Besides, in series [1] (5 mg/kg PO), the “Climbing in forced swim test vs saline” value was “statistically (P<0.02) more swimming and climbing”; the “Immobility in forced swim test vs saline” value is “statistically (P<0.02) less immobility”; the “Swimming in forced swim test vs saline” value is “statistically (P<0.02) more swimming and climbing”.
